Reference: patent US20260124166A1, “COMPOSITIONS AND METHODS USING GLYCINE TO REDUCE BIOLOGICAL AGE OF AN ADULT ANIMAL” (Société des Produits Nestlé S.A., priority 2022, published 2026)

What was measured:
[1] = old mice (21 months), 1.6 g/kg food glycine in diet for 6 weeks, vs old control diet and young (4 months) mice
Text: 28 wild-type C57BL/6J mice of 21-months old and 12 wild-type C57BL/6J mice of 4-months old were kept in a temperature-and humidity-controlled environment with a 12:12-h light-dark cycle. Mice had access to nesting and enrichment materials and were provided with ad libitum access to water and food.
(§1) Mice underwent to a dietary supplementation for 6 weeks. The young control group (n=12) and old control group (n=14) received a commercial standard powdered diet (Safe 150, Safe Diets), with 20% humidity. […] At the end of the treatment, mice were euthanized with isoflurane after 2-hours fasting. Muscle gastrocnemius has been dissected and samples were snap frozen in liquid nitrogen and stored at −80° C.
Tissue pieces were excised on dry ice with liquid nitrogen cooled scalpels and kept at −80° C. until extraction. For extraction, samples were homogenized in 300 μL −20 ° C. methanol/water (5:3), including a fully labelled 13C yeast biomass as internal standard, using 5 mm stainless steel beads in a tissue grinder (Qiagen TissueLyser II) for up to 3 min at 23 Hz. […] The protein pellets were quantified with a bicinchoninic acid assay for later normalization and the polar phases, containing the metabolites of interest, were dried overnight in a vacuum centrifuge at 4° C. and 5 mbar and stored at −80° C. until analysis. […]

[2] = old mice (21 months), 1.6 g/kg food glycine in diet for 6 weeks, compared to old mice with control diet
Experimental: All animal experiments were performed according to national Swiss and EU ethical guidelines and approved by the local animal experimentation committee under license VD3519. 28 wild-type C57BL/6J mice of 21-months old and 12 wild-type C57BL/6J mice of 4-months old were kept in a temperature-and humidity-controlled environment with a 12:12-h light-dark cycle. Mice had access to nesting and enrichment materials and were provided with ad libitum access to water and food.
as §1
DNA extraction was performed on 100 mg of muscle using QIAGEN DNeasy Blood and Tissue kit (Cat. No: 69506) and following manufacturer recommendations. DNA was quantified using the DropSense technology (Unchained Labs). […]
Raw data were sent to the Clock Foundation, who performed the analyses to calculate the biological age of the samples. […] Data were plotted and analysed using R. One-tailed parametric t statistics was performed to test the effect of the glycine supplementation compared to the control diet.

In the case of NCC(=O)O [glycine], the “glycine levels in muscle” value [1] is reported as “significantly restores them toward young levels” and the “biological age (DNA methylation, muscle specific clock)” value [2] is reported as “biological age decreases significantly”.
